The values below come from PMC12921516 (ACS Bio & Med Chem Au, 2025).

The target in one series is T1, hPTP1B1–285 (Homo sapiens, UniProt P18031).
T1 construct: h PTP1B 1–285 IC 50 (μM ± S.D); made in house
T1 sequence (P18031 1-285): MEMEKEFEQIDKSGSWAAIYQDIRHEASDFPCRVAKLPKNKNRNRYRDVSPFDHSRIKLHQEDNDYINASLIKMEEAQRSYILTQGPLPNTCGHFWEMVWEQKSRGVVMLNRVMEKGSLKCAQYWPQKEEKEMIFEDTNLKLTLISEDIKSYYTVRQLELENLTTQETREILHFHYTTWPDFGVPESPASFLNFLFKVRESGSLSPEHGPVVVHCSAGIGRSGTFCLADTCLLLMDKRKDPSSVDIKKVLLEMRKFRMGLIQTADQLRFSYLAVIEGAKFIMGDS
Kind of series: PTP1B inhibition, pNPP hydrolysis, short form. In kind it is biochemical. The conditions noted are these: pNPP substrate; ± S.D. As to the method: In contrast to analogous regions in other PTP family proteins, the intrinsically disordered C-terminal domain of PTP1B (residues 301–400) contains two α-helices, α8′ (residues 320–327) and α9′ (residues 360–377), which may act as binding sites for various compounds.
Aliquots of 0–10 μL of the test compounds (triplicate) were taken and incubated for 15 min at 37 °C with 85 μL of Tris buffer solution (50 mM, pH 6.8) containing PTP1B enzyme and 5 μL of p-nitrophenyl phosphate substrate (pNPP, 10 mM). The absorbance of the hydrolysis product, p-nitrophenol (pNP), was measured at 405 nm using a 96-microplate absorbance reader (Accuris SmartReader 96). The inhibitory activity was determined according to eq . %enzyme=(A405b/A405c)×100 1 Where: % enzyme is the percentage of inhibition for PTP1B or TCPTP
The IC50 was calculated using regression analysis, eq : %inhibition=A100/1+(I/IC50)^s 2 Where: A100: Maximum inhibition

For series [1], the system named is HepG2 cells. Briefly: Cell viability of HepG2 with crystal violet. In kind it is cell-based, human. To be noted: 1, 10, and 30 µM for 24, 48 and 72 h. On the procedure: A 96-well plate was seeded with 3,000 HepG2 cells per well and incubated for 72 h. Subsequently, the cells were treated with test compounds at various concentrations for 24, 48, and 72 h. After incubation, the medium was removed, and 100 μL of 1% glutaraldehyde was added for 15 min. The glutaraldehyde was then removed, and 50 μL of 0.5% crystal violet (dissolved in 25% methanol) was added for 30 min. The crystal violet staining solution was subsequently removed, and the plate was thoroughly rinsed with tap water. The precipitate was dissolved in a 10% acetic acid solution, mixed for 15 min, and the absorbance was measured at 590 nm using a plate reader (xMark Microplate Spectrophotometer, Bio-Rad).
Figure S48. Cell viability assessment by crystal violet staining. HepG2 cell viability was evaluated after treatment with the respective compounds at concentrations of 1 , 10, and 30 µM for 24 , 48 and 72 hours. Bar graphs represent mean ± SEM. No significant differences were detected using ANOVA. […]

Series [2] has as its system HepG2 cells. Briefly: GC-MS untargeted metabolomic analysis. In kind it is cell-based, human. The conditions noted are these: HepG2, 30 μM for 24 h, vs DMSO. On the procedure: HepG2 cells are commonly utilized in metabolomics to study alterations in metabolic pathways, such as glycolysis and lipid metabolism, when exposed to various substances, − due to their ability to sustain liver-specific functions. To explore the metabolic changes induced by the 4b and 5g derivatives in HepG2 cells, an untargeted metabolomic analysis using GC-MS was carried out. […] This vitamin is essential for synthesizing coenzyme A (CoA), which in turn produces acetyl-CoA and succinyl-CoA, all of which are crucial for ATP production in the tricarboxylic acid (TCA) cycle. […] On the other hand, our findings indicate that 5g leads to a reduction in intracellular citrate levels, which may promote glycolysis and diminish gluconeogenesis similarly to metformin. Consequently, this could potentially lower hepatic glucose output. In summary, the increased intracellular levels of pantothenic acid and glycine, combined with the lowered citrate levels achieved by 5g, may play a significant role in improving insulin resistance and T2DM.
5 GC-MS-based untargeted metabolomic analysis of HepG2. (a) Heatmap analysis of HepG2 cells treated with DMSO (D, vehicle), 4b, or 5g for 24 h. (b) Principal Component Analysis (PCA) of untargeted metabolomic analysis of HepG2 treated with DMSO (vehicle), 4b, and 5g at 30 μM for 24 h (c). Statistically significant metabolites altered between the groups. Graphs were constructed using sum-normalized peak height values. Asterisks indicate statistical significance according to the Dunn test, with p-values denoted as follows: *p < 0.05, **p < 0.01. Created in BioRender. Matuz Mares, D. (2025) https://BioRender.com/hpj5plg.
The treated HepG2 cells were washed twice with 1 mL of PBS, and the liquid was entirely removed by pipetting. Posteriorly, 1 mL of ice-cold methanol containing 2.5 μL of internal standard, consisting of tridecanoic acid (0.1 mg/mL), was added, and the mixture was bath sonicated for 2 min. All the extract was recovered in microcentrifuge tubes, thoroughly vortexed, and then centrifuged for 10 min at 15,000 rpm at 4 °C. The supernatant was recovered and dried overnight using a SpeedVac (SPD 121P, Thermo Scientific). 40 μL of 20 mg/mL […] was added under nitrogen flow and incubated for 90 min at 37 °C. Posteriorly, the tube was centrifuged, and the supernatant was fully recovered and transferred to an insert tube with 40 μL of MBSTFA 1% TMCS, vortexed and incubated for 30 min. One μL of this extract was injected into a GC/MS (Agilent 5977A/7890B, Santa Clara, CA, USA) system with HP5-MS (Agilent) column with helium 99.9999% purity under the following parameters: splitless, flow 1 mL/min, electron ionization, with a range of 50–500 m/z. The chromatography consisted of a 1 min hold at 60 °C, followed by a ramp of 10 °C/min to 325 °C, and a final hold time of 10 min. Raw data was transformed with Agilent Mass Hunter to mz data, and deconvolution and alignment were performed with Mzmine2.0. Univariate and multivariate analyses were performed with Metaboanalyst 6.0 and GraphPad.

Entries after “also recorded” stand apart in the source; their conditions may differ.

With `CC1(C)c2[nH]c3ccc(OC(F)F)cc3c2C[C@]2(C)[C@H]3C(=O)C=C4[C@@H]5C[C@@](C)(C(=O)O)CC[C@]5(C)CC[C@@]4(C)[C@]3(C)CC[C@@H]12` [compound 4b, (20β)-5′-(Difluoromethoxy)-11-oxo-1′H-oleana-2,12-dieno[3,2-b]indol-29-oic Acid], the IC50 (as a rule, the point on the concentration scale where inhibition reaches its midpoint) at hPTP1B1–285 stood at 7.03 ± 0.28 µM. Also, the HepG2 cell viability entry in the series with HepG2 cells [1] is on record as “No significant differences; also recorded: did not compromise HepG2 cell viability”. Besides, in the series with HepG2 cells [2], the glycine levels entry is listed as “not statistically significant”, the intracellular fructose levels entry is on record as “not statistically significant”, the intracellular glucose levels entry was “not statistically significant” and the “intracellular palmitic acid levels” value was “significantly reduce”. Also, in the series with HepG2 cells [2], the “intracellular stearic acid levels” value was “significantly reduce” and the pantothenic acid levels result is given as “not statistically significant”.
Compound `CC1(C)c2[nH]c3ccc(S(N)(=O)=O)cc3c2C[C@]2(C)[C@H]3C(=O)C=C4[C@@H]5C[C@@](C)(C(=O)O)CC[C@]5(C)CC[C@@]4(C)[C@]3(C)CC[C@@H]12` [compound 4g, (20β)-5′-Sulfamoyl-11-oxo-1′H-oleana-2,12-dieno[3,2-b]indol-29-oic Acid] showed an IC50 on hPTP1B1–285 of 9.11 ± 0.58 µM. Also, the HepG2 cell viability result in the series with HepG2 cells [1] is “No significant differences”.
In the case of `CC1(C)c2c(cnn2-c2ccc(S(N)(=O)=O)cc2)C[C@]2(C)[C@H]3C(=O)C=C4[C@@H]5C[C@@](C)(C(=O)O)CC[C@]5(C)CC[C@@]4(C)[C@]3(C)CC[C@@H]12` [compound 5g, (20β)-11-Oxo-2′-(4-sulfamoylphenyl)-2′H-oleana-2,12-dieno[3,2-c]pyrazol-29-oic Acid], on hPTP1B1–285, half-maximal inhibition (IC50) required 5.51 ± 0.16 µM. The HepG2 cell viability entry in the series with HepG2 cells [1] is recorded as “No significant differences; also recorded: did not compromise HepG2 cell viability”. In the series on HepG2 cells [2], the glycine levels entry is on record as “markedly increasing”, the intracellular citrate levels result was “reduction”, the intracellular fructose levels result is “significantly lowers” and the intracellular glucose levels entry is “significantly lowers”. Also, the pantothenic acid levels result in the series on HepG2 cells [2] was “significant increase”.
